Tests used:
Human MAT2A [1] = biological target: T1, Human MAT2A (Homo sapiens, UniProt P31153); assay: Phosphate Sensor Fluorescence Assay (Biologic Example A); format: biochemical; conditions: MAT2A inhibition, Biological Example A procedure (Compounds 1.001-1.028); 500 uM L-methionine, 500 uM ATP
T1 construct: Human MAT2A: Cepter, amino acids 1-395 Clone ID 334, lot 00023-148; purchased Cepter clone ID 334, lot 00023-148
Description: (§1) The ability of the compound of present disclosure to inhibit MAT2A enzyme was determined using a Phosphate Sensor Fluorescence Assay described below.
Biologic Example A. Phosphate Sensor Fluorescence Assay
(§2) MAT2A enzyme is incubated with a test compound in DMSO or DMSO and its substrates (L-methionine and ATP) in a microtiter plate. The enzymatic reaction is stopped by the addition of Working Phosphate Sensor Mixture. The plate is analyzed for fluorescence at 450 nm. The high control (DMSO with enzyme and its substrates) gives high fluorescence which represents no inhibition of enzymatic activity while the low control (DMSO with MAT2A substrates and no enzyme) gives low fluorescence which represents full inhibition of enzymatic activity.
(§3) • Human MAT2A: Cepter, amino acids 1-395 • Tris, pH 7.5: Invitrogen cat #15567-027 • KCl: Ambion cat #AM9640G • MgCl2: Ambion cat #AM9530G • Brij-35: Sigma cat B4184-10ML • DTT: Goldbio cat #DTT100 • BGG: Sigma cat #G5009-25G • PNP: Novus Biologicals cat #NBP1-50872 • 7-MEG: Cayman Chemical cat #15988 • L-Methionine: Alfa Aesar cat #J61904 • ATP: Alfa Aesar cat #J60336 • Phosphate Sensor: Thermo Fisher cat #PV4407 • EDTA: Life Tech cat #15575-038 • Assay plate: 384-well black polypropylene plate: Thomas Scientific cat #1149Q35
• Assay Buffer: 50 mM Tris, pH 7.5/50 mM KCl/10 mM MgCl2/0.01% Brij-35/1 mM DTT/0.1% BGG/40 nM PNP/6 uM 7-MEG • MAT2A: 10 nM for Cepter clone ID 329, lot 00023-123 before the addition of Working Phosphate Sensor Mixture • 5 nM for Cepter clone ID 334, lot 00023-148 before the addition of Working Phosphate Sensor Mixture • L-methionine: 500 uM before the addition of Working Phosphate Sensor Mixture • ATP: 500 uM before the addition of Working Phosphate Sensor Mixture
(§4) For the assay, a mixture of 1 mM L-methionine/1 mM ATP (2× final pre-stopped concentration) in assay buffer; MAT2A (2× final pre-stopped concentration) in Assay Buffer and Working Phosphate Sensor Mixture (1.5 uM Phosphate Sensor/30 mM EDTA in Assay Buffer, which is 3× final concentrations) were prepared. Test compounds or DMSO were added to the appropriate well suing D300e digital dispenser. 5 μl/well of Assay Buffer was added to the wells corresponding to the negative control and 5 μl/well of MAT2A was added to all the wells except for those corresponding to the negative control. After incubating the plate at room temperature for 15 minutes, 5 μl/well of the 1 mM L-methionine/1 mM ATP mixture was added to all wells. The plate was centrifuged at 1000 rpm for 1 minute and then incubated at room temperature for 1 hour. 5 μl of the Working Phosphate Sensor Mixture was added to all wells and the plate was centrifuged at 1000 rpm for 1 minute. The plate was read for fluorescence at 450 nm after exciting at 430 nm.
(§5) Percent inhibition was calculated in Chemical and Biological Information System (CBIS), (ChemInnovation Software Inc.). Curves were fitted by CBIS as % inhibition vs. log [compound concentration] using a 4-parameter inhibition model.
(§6) Fit=(A+((B−A)/(1+((C/x)^D))))
(§7) Compounds 1.001-1.028 were tested using the procedure described in Bioogical Example A, described above. Compounds 1.029-1.070 were tested using the procedure described in Biological Example B, described above.

Human MAT2A [2] = biological target: T1, Human MAT2A; assay: Phosphate Sensor Fluorescence Assay (Biologic Example B); format: biochemical; conditions: MAT2A inhibition, Biological Example B procedure (Compounds 1.029-1.070); 5.8 nM MAT2A, 500 uM L-methionine, 500 uM ATP
Description: as §1
Biologic Example B. Phosphate Sensor Fluorescence Assay
as §2
as §3, with “1-395 Clone ID 334, lot 00023-148” for “1-395”, “JTBaker P/N 2085-05” for “Alfa Aesar cat #J61904”, “Promega P/N V915B” for “Alfa Aesar cat #J60336”, “Invitrogen” for “Thermo Fisher”, “Corning P/N 3573” for “Thomas Scientific cat #1149Q35”
• Assay Buffer: 50 mM Tris, pH 7.5/50 mM KCl/10 mM MgCl2/0.01% Brij-35/1 mM DTT/0.01% BGG/40 nM PNP/6 uM 7-MEG • MAT2A: 5.8 nM MAT2A (1-395), Cepter, clone ID 334, lot 00023-148 before the addition of Working Phosphate Sensor Mixture • L-methionine: 500 uM before the addition of Working Phosphate Sensor Mixture • ATP: 500 uM before the addition of Working Phosphate Sensor Mixture
as §4, with “using a Beckman Coulter Echo 550 acoustic liquid handler. 10 μL/well” for “suing D300e digital dispenser. 5 μl/well”, “10 μL/well” for “5 μl/well”, “10 μL” for “5 μl”, “nm on a Tecan Spark microplate reader.” for “nm.”
as §5, §6, §7

T1 sequence (P31153 whole entry, the tested form may be a part): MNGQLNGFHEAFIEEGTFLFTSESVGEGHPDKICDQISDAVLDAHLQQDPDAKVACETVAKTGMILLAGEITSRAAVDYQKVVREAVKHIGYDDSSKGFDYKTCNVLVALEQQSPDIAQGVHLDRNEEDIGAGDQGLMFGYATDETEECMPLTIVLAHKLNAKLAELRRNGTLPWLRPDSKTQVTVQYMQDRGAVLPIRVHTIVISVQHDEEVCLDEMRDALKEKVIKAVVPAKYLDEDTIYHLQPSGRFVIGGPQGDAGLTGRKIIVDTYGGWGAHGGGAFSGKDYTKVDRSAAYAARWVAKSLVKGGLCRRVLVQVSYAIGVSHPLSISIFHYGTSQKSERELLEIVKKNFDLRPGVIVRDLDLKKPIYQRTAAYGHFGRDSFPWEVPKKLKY

| SMILES | IC50 (Human MAT2A [1]) [µM] | IC50 (Human MAT2A [2]) [µM] |
| --- | --- | --- |
| CC(c1c[nH]cn1)n1c(=O)nc(N2CC[C@H](O)C2)c2ccc(C(F)(F)F)cc21 (mixture of isomers) [1.019, 1-(1-(1H-imidazol-4-yl)ethyl)-4-((S)-3-hydroxypyrrolidin-1-yl)-7-(trifluoromethyl)quinazolin-2(1H)-one] | 0.2 to 0.5 |  |
| CC(c1c[nH]cn1)n1c(=O)nc(N2CC[C@@H](CO)C2)c2ccc(C(F)(F)F)cc21 (mixture of isomers) [1.020, 1-(1-(1H-imidazol-4-yl)ethyl)-4-((R)-3-(hydroxymethyl)pyrrolidin-1-yl)-7-(trifluoromethyl)quinazolin-2(1H)-one] | 0.2 to 0.5 |  |
| C[C@H](c1c[nH]cn1)n1c(=O)nc(N2CC[C@@H](O)C2)c2ccc(C(F)(F)F)cc21 (single isomer, unassigned) [1.013] | 0.01 to 0.2 |  |
| C[C@@H](c1c[nH]cn1)n1c(=O)nc(N2CC[C@@H](O)C2)c2ccc(C(F)(F)F)cc21 (single isomer, unassigned) [1.014] | 0.01 to 0.2 |  |
| C[C@H](c1c[nH]cn1)n1c(=O)nc(N(C)C)c2ccc(C(F)(F)F)cc21 (single isomer, unassigned) [1.016] | 0.01 to 0.2 |  |
| C[C@@H](c1c[nH]cn1)n1c(=O)nc(N(C)C)c2ccc(C(F)(F)F)cc21 (single isomer, unassigned) [1.017] | 0.01 to 0.2 |  |
| CO[C@H]1CCN(c2nc(=O)n([C@H](C)c3c[nH]cn3)c3cc(C(F)(F)F)ccc23)C1 (single isomer, unassigned) [1.021] | 0.2 to 0.5 |  |
| C[C@@H](c1c[nH]cn1)n1c(=O)nc(N2CCCC2)c2ccc(C(F)(F)F)cc21 (single isomer, unassigned) [1.024] | 0.01 to 0.2 |  |
| CO[C@@H]1CCN(c2nc(=O)n([C@H](C)c3c[nH]cn3)c3cc(C(F)(F)F)ccc23)C1 (single isomer, unassigned) [1.025] | 0.01 to 0.2 |  |
| CO[C@@H]1CCN(c2nc(=O)n([C@@H](C)c3c[nH]cn3)c3cc(C(F)(F)F)ccc23)C1 (single isomer, unassigned) [1.026] | 0.2 to 0.5 |  |
| C[C@H](c1c[nH]cn1)n1c(=O)nc(N2CCC2)c2ccc(C(F)(F)F)cc21 (single isomer, unassigned) [1.027] | 0.2 to 0.5 |  |
| C[C@@H](c1c[nH]cn1)n1c(=O)nc(N2CCC2)c2ccc(C(F)(F)F)cc21 (single isomer, unassigned) [1.028] | 0.01 to 0.2 |  |
| CNc1nc(=O)n(Cc2c[nH]cn2)c2cc(Cl)ccc12 [1.001, 1-((1H-imidazol-4-yl)methyl)-7-chloro-4-(methylamino)quinazolin-2(1H)-one] | 0.01 to 0.2 |  |
| CNc1nc(=O)n(Cc2c[nH]nn2)c2cc(C(F)(F)F)ccc12 [1.005, 1-((1H-1,2,3-triazol-4-yl)methyl)-4-(methylamino)-7-(trifluoromethyl)quinazolin-2(1H)-one] | 1 to 10 |  |
| CNc1nc(=O)n(Cc2c[nH]nn2)c2cc(C3CC3)ccc12 [1.006, 1-((1H-1,2,3-triazol-4-yl)methyl)-7-cyclopropyl-4-(methylamino)quinazolin-2(1H)-one] | 1 to 10 |  |
| CNc1nc(=O)n(Cc2cnco2)c2cc(C(F)(F)F)ccc12 [1.065, 4-(Methylamino)-1-(oxazol-5-ylmethyl)-7-(trifluoromethyl)quinazolin-2(1H)-one] |  | 0.5 to 1 |
| CNc1nc(=O)n(Cc2cscn2)c2cc(C(F)(F)F)ccc12 [1.067, 4-(Methylamino)-1-(thiazol-4-ylmethyl)-7-(trifluoromethyl)quinazolin-2(1H)-one] |  | 1 to 10 |

The next lines start with the values.

| IC50 (Human MAT2A [1]) [µM] | IC50 (Human MAT2A [2]) [µM] | SMILES |
| --- | --- | --- |
| 0.01 to 0.2 |  | CC(c1c[nH]cn1)n1c(=O)nc(N2CC[C@@H](O)C2)c2ccc(C(F)(F)F)cc21 (mixture of isomers) [1.012, 1-(1-(1H-imidazol-4-yl)ethyl)-4-((R)-3-hydroxypyrrolidin-1-yl)-7-(trifluoromethyl)quinazolin-2(1H)-one] |
| 0.01 to 0.2 |  | CNc1nc(=O)n(C(C)c2c[nH]cn2)c2cc(C(F)(F)F)ccc12 (racemic) [1.007, 1-(1-(1H-imidazol-4-yl)ethyl)-4-(methylamino)-7-(trifluoromethyl)quinazolin-2(1H)-one] |
| 0.01 to 0.2 |  | CNc1nc(=O)n([C@H](C)c2c[nH]cn2)c2cc(C(F)(F)F)ccc12 (single isomer, unassigned) [1.008] |
| 0.01 to 0.2 |  | CNc1nc(=O)n([C@@H](C)c2c[nH]cn2)c2cc(C(F)(F)F)ccc12 (single isomer, unassigned) [1.009] |
| 1 to 10 |  | CO[C@H]1CCN(c2nc(=O)n([C@@H](C)c3c[nH]cn3)c3cc(C(F)(F)F)ccc23)C1 (single isomer, unassigned) [1.022] |
| 0.01 to 0.2 |  | C[C@H](c1c[nH]cn1)n1c(=O)nc(N2CCCC2)c2ccc(C(F)(F)F)cc21 (single isomer, unassigned) [1.023] |
| 0.5 to 1 |  | CNc1nc(=O)n([C@H](C)c2cscn2)c2cc(C(F)(F)F)ccc12 [1.002, (R)-4-(methylamino)-1-(1-(thiazol-4-yl)ethyl)-7-(trifluoromethyl)quinazolin-2(1H)-one] |
| 0.01 to 0.2 |  | CNc1nc(=O)n(Cc2c[nH]cn2)c2cc(C(F)(F)F)ccc12 [1.003, 1-((1H-imidazol-4-yl)methyl)-4-(methylamino)-7-(trifluoromethyl)quinazolin-2(1H)-one] |
| 0.01 to 0.2 |  | CNc1nc(=O)n(Cc2c[nH]cn2)c2cc(C3CC3)ccc12 [1.004, 1-((1H-Imidazol-4-yl)methyl)-7-cyclopropyl-4-(methylamino)quinazolin-2(1H)-one] |
|  | 0.01 to 0.2 | CNc1nc(=O)n(Cc2cocn2)c2cc(C(F)(F)F)ccc12 [1.066, 4-(Methylamino)-1-(oxazol-4-ylmethyl)-7-(trifluoromethyl)quinazolin-2(1H)-one] |
|  | 0.5 to 1 | CNc1nc(=O)n(Cc2cncs2)c2cc(C(F)(F)F)ccc12 [1.068, 4-(Methylamino)-1-(thiazol-5-ylmethyl)-7-(trifluoromethyl)quinazolin-2(1H)-one] |
